Data reported in ChEMBL document CHEMBL1127141, “Monocyclic -lactam inhibitors of human leukocyte elastase. Stereospecific synthesis and activity of 3,4-disubstituted-2-azetidinones” (Bioorg Med Chem Lett, 1993).

Experiments:
[1] = target: T1, Neutrophil elastase (Homo sapiens, UniProt P08246); assay: Compound was evaluated for the inhibitory activity against Human leukocyte elastase; […]
T1 sequence (P08246 whole entry): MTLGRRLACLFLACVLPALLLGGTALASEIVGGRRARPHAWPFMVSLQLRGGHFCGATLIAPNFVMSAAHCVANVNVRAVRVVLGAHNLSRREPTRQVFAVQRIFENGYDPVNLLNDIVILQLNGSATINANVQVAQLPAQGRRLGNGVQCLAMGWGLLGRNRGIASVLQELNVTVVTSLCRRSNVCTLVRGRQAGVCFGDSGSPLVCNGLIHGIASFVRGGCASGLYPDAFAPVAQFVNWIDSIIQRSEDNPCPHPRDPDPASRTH

[2] = target: T2, Neutrophil elastase (Homo sapiens) (UniProt P08246); assay: Compound was evaluated for the inhibitory activity against Human leukocyte elastase
T2 sequence (whole entry): T1 sequence (P08246 whole entry)

| Ki [1] [µM] | K obs / 1 [2] [M⁻¹ s⁻¹] | SMILES |
| --- | --- | --- |
| 5.6 | – | CC[C@H]1C(=O)N(C(=O)NCc2ccccc2)[C@H]1Oc1ccc(C(=O)O)cc1 |
| – | 2480 | CCC1C(=O)N(C(=O)NCc2ccccc2)C1Oc1ccc(C(=O)O)cc1 (trans isomer) |
| – | 383 | CC[C@@H]1C(=O)N(C(=O)NCc2ccccc2)[C@@H]1Oc1ccc(C(=O)O)cc1 |
| – | 424 | CC[C@@H]1C(=O)N(C(=O)NCc2ccccc2)[C@H]1Oc1ccc(C(=O)O)cc1 |
